Reference: publication PMC5642495, “Characterization of a novel androgen receptor (AR) coregulator RIPK1 and related chemicals that suppress AR-mediated prostate cancer growth via peptide and chemical screening” (Oncotarget, 2017)

Columns and labels:
LNCaP = assay: cell growth assay (MTT), LNCaP; type: cell-based; conditions: Homo sapiens, 48 h, Figure 4B, read-out: IC50, prostate cancer cell line growth
Experimental: LNCaP, CWR22R, and PC-3 cells were grown in RPMI containing 10% FBS. Cells were plated at a density of 5 × 10^4 cells/well in 24-well plates overnight and incubated with difference concentrations of chemicals for 48 h. Cell growth was assessed using the 3-{4,5-dimethylthiazol-2-yl}-2,5-diphenyltetrazolium bromide (MTT) assay. At each time-point, 50 μl of 5 mg/ml MTT was added to each well containing 500 μl medium and incubated for 3 h, followed by the addition of 500 μl isopropyl alcohol to dissolve the reduced formazan product. Absorbance of each well was measured at a wavelength of 590 nm in a DU 640B spectrophotometer (Beckman, Fullerton, CA), according to the manufacturer’s protocol. Values represent mean OD590 ± SD from at least three independent reaction wells.

AR N-C interaction = target: T1, AR N-C interaction (Homo sapiens, UniProt P10275); assay: AR N-C interaction reporter assay in PC-3 cells; type: cell-based; conditions: 10 nM DHT, Figure 6A
T1 construct: pCDNA3-hAR-C (residues 556–919); expressed in transfected cells; host or cells: PC-3
T1 sequence (P10275 556-919): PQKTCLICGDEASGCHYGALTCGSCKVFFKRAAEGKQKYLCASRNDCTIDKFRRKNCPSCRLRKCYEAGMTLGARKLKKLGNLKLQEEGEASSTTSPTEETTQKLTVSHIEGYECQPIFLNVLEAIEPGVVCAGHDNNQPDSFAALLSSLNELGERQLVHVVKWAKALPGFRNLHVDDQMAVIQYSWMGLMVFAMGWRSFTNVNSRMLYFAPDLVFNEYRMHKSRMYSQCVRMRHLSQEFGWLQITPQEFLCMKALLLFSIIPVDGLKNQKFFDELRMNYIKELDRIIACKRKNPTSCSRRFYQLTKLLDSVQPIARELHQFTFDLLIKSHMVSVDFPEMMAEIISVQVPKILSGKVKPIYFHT
Experimental: (§1) Figure 6 Mechanism underlying suppression of AR-related functions by oxadiazole derivatives (A–C) Transcriptional activity in reporter assays. PC-3 cells in 24-well plates were transfected as indicated below. After incubation for 16 h, cells were treated with ethanol, 10 nM DHT, or 0.01–10 μM HWC-489 or LHJ-647 for an additional 16 h. Luciferase activity in cell lysates was determined and normalized to protein concentrations. Relative luciferase activity was calculated using the luciferase reporter assay system. (A) PC-3 cells were co-transfected with 350 ng pCDNA3-flag-hAR-N (residues 1–506), 350 ng pCDNA3-hAR-C (residues 556–919), and 300 ng MMTV-Luc plasmids. (B) PC-3 cells were co-transfected with 350 ng GAL4-DBD-3-18, 350 ng pCMX-VP16-AR, and 300 ng pG5-Luc plasmids. (C) PC-3 cells were transfected with 350 ng GAL4-DBD-ARA54C, 350 ng VP16-AR, and 300 ng pG5-Luc plasmids. (D) LHJ-647 promotes AR protein degradation.

AR-cofactor interaction = target: T2, AR-cofactor interaction (Homo sapiens, UniProt P10275); assay: AR-cofactor interaction reporter assay (GAL4-DBD-ARA54C / VP16-AR) in PC-3 cells; type: cell-based; conditions: 10 nM DHT, Figure 6C
T2 construct: expressed in transfected cells; host or cells: PC-3
T2 sequence (P10275 1-920): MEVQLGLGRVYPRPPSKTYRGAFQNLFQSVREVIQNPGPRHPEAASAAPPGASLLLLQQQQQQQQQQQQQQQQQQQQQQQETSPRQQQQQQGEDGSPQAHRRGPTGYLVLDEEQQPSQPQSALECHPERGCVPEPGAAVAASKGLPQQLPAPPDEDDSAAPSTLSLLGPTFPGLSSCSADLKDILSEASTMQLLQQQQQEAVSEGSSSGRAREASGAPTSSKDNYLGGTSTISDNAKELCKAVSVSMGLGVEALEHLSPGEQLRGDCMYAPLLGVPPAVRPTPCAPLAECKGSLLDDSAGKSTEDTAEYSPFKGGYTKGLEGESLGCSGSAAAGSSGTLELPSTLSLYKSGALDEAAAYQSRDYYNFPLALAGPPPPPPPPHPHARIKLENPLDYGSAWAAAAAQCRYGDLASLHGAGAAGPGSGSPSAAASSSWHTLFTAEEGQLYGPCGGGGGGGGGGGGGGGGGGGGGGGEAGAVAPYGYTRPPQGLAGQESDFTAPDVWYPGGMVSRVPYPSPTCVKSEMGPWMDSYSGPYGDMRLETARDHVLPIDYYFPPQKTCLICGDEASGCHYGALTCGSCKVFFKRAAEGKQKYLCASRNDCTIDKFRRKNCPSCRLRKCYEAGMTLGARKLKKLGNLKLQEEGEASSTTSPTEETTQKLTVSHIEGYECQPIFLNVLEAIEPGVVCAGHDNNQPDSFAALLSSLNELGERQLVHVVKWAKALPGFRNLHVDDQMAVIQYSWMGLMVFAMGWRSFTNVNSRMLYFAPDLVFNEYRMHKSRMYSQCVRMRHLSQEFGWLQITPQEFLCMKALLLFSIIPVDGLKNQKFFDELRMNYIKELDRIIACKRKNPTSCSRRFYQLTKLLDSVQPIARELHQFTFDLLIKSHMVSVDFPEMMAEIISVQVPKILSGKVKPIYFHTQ
Experimental: as §1

NOD/SCID mice = assay: treatment toxicity monitoring in xenograft mice; type: in vivo; conditions: for changes in body weight, clinical signs and gross morphology: during the study period; for mouse mortality: in vivo
Experimental: All experiments involving laboratory animals were conducted in accordance with the Guidelines for Animal Experiments of Chang Gung Memorial Hospital and approved by the Animal Research Committee at the hospital. LNCaP cells were harvested, washed twice with phosphate-buffed saline, and resuspended at a final concentration of 5 × 10^6 cells/mL in Matrigel (BD Biosciences, San Jose, CA) containing basement membrane components. Next, 5 × 10^5 cells (100 μL per site) were subcutaneously injected into the flanks of 4–6 week-old male NOD/SCID mice (BioLASCO, Taiwan). Tumor development was confirmed within 2–3 weeks after injection of the same number of cell subclones. Treatment with different chemicals was initiated at the same time. Tumor dimensions were measured twice a week with calipers, and tumor volumes calculated using the formula: tumor volume (mm^3) = tumor length (mm) × [tumor width (mm)]^2 × 0.5. Three to five mice were used per group (with or without chemical treatment). Mice were sacrificed 4 weeks after chemical injection and tumors harvested for further analyses. For evaluation of treatment toxicity, animal mortality, changes in body weight, clinical signs and gross morphology were monitored during the experiment.

Compound | IC50 (LNCaP) | concentration range of significant suppression of AR N-C interaction (AR N-C interaction) | concentration range of significant suppression of AR-cofactor interaction (AR-cofactor interaction) | changes in body weight, clinical signs and gross morphology (NOD/SCID mice) | mouse mortality (NOD/SCID mice)
Cc1ccc(-c2nnc(Nc3ccccc3)o2)cc1 [HWC-489] | 1 to 10 µM | 0.1 to 1 µM | 0.1 to 1 µM | no significant alterations | No mouse mortality was observed
COc1cccc(Nc2nnc(-c3ccc(N(C)C)cc3)o2)c1 [LHJ-647] | 1 to 10 µM | 0.1 to 1 µM | 0.1 to 1 µM | no significant alterations | No mouse mortality was observed
